Data as given in ChEMBL document CHEMBL5030511, “Targeting KRAS Mutant Cancers via Combination Treatment: Discovery of a 5-Fluoro-4-(3H)-quinazolinone Aryl Urea pan-RAF Kinase Inhibitor” (J Med Chem, 2021).
In brackets after ≈: the same amount, converted by molar mass. Values belong to the compound of their own block, whether it stands above or below them. Activity calls are given as the source filed them. The calls are words filed in the database; no cut-off is given here.

What was measured:
Mus musculus [1] = test: Inhibition of pERK in human HCT-116 cells xenografted NCR nude mouse at 5 mg/kg, po qd for 4 days and measured after 2 to 8 hrs; format: functional, organism-based; settings: time 4.0 day
HCT-116 [2] = test: Antitumour activity against human HCT-116 cells harboring KRAS mutant xenografted in NCR nude mouse assessed as tumor growth inhibition at 5 mg/kg, po qd for 21 days; format: functional, organism-based; settings: time 21.0 day
A549 [3] = test: Synergistic antiproliferative activity against human A549 cells harboring KRAS mutant assessed as reduction in cell viability incubated for 24 hrs in presence of 100 nM cobimetinib by Click-iT EdU cell proliferation imaging assay; format: functional, cell-based; settings: A549, 24 h
A549 [4] = test: Antiproliferative activity against human A549 cells harboring KRAS mutant assessed as reduction in cell viability incubated for 24 hrs by Click-iT EdU cell proliferation imaging assay; format: functional, cell-based; settings: A549, 24 h
A-375 [5] = test: Antiproliferative activity against human A-375 cells harboring BRAF mutant assessed as reduction in cell viability incubated for 24 hrs by Click-iT EdU cell proliferation imaging assay; format: functional, cell-based; settings: A-375, 24 h
[6] = target: RAF proto-oncogene serine/threonine-protein kinase (Homo sapiens, UniProt P04049, Y340D/Y341D)
[7] = target: Serine/threonine-protein kinase B-raf (Homo sapiens, UniProt P15056)
Description: Inhibition of BRAF (unknown origin) (416 to 766) inactive MAP2K1 as substrate preincubated for 30 mins measured after 90 mins by DELFIA assay

[8] = Toxicity in NCR nude mouse xenografted with human HCT-116 cells harboring KRAS mutant assessed as body weight loss at 10 mg/kg, po bid for 21 days in presence of 5 mg/kg Cobimetinib; format: organism-based; settings: in vivo, 504 h, time 21 day
[9] = Oral bioavailability in mouse using PEG 400 at 5 mg/kg; format: ADME, organism-based; settings: in vivo
Mus musculus [10] = test: Induction of stabilization of CRAF phosphorylation in human HCT-116 cells xenografted NCR nude mouse assessed as decrease in pERK level at 10 mg/kg, po bid for 4 days in presence of Cobimetinib and measured after 8 hrs; format: functional, organism-based; settings: time 4.0 day
Mus musculus [11] = test: Induction of CRAF phosphorylation in human HCT-116 cells xenografted NCR nude mouse at 10 mg/kg, po bid for 4 days in presence of Cobimetinib and measured after 2 to 8 hrs; format: functional, organism-based; settings: time 4.0 day
A-375 [12] = test: Additive antiproliferative activity against human A-375 cells harboring BRAF mutant assessed as inhibition of cell growth in presence of Cobimetinib by EdU staining based assay; format: functional
[13] = Half life in mouse at 1 mg/kg, iv; format: ADME, organism-based; settings: in vivo
[14] = Kinetic solubility of the compound in pH 7.4 PBS buffer; format: physicochemical; settings: read-out: Kinetic_solubility
[15] = Clearance in mouse at 1 mg/kg, iv; format: ADME, organism-based; settings: in vivo
Mus musculus [16] = test: Induction of stabilization of CRAF phosphorylation in human HCT-116 cells xenografted NCR nude mouse assessed as decrease in pRSK level at 10 mg/kg, po bid for 4 days and measured after 2 to 8 hrs; format: functional, organism-based; settings: time 4.0 day
[17] = Apparent permeability from apical to basolateral side in dog MDCK cells; format: ADME, cell-based, Canis lupus familiaris
HCT-116 [18] = test: Synergistic antiproliferative activity against human HCT-116 cells harboring KRAS mutant assessed as inhibition of cell growth at 0.003 to 0.93 uM in presence of Cobimetinib by EdU staining based assay; format: functional; settings: dose 0.003-0.93 µM
[19] = Toxicity in NCR nude mouse xenografted with human HCT-116 cells harboring KRAS mutant assessed as body weight loss at 10 mg/kg, po bid for 21 days; format: organism-based; settings: in vivo, 504 h, time 21 day
[20] = Lipophilicity, log D of the compound at pH 7.4; format: physicochemical; settings: buffer
[21] = Oral bioavailability in mouse using amorphous spray-dried dispersion at 30 mg/kg; format: ADME, organism-based; settings: in vivo
A549 [22] = test: Synergistic antiproliferative activity against human A549 cells harboring KRAS mutant assessed as inhibition of cell growth in presence of Cobimetinib by EdU staining based assay; format: functional; settings: dose 0.02-5 µM
Mus musculus [23] = test: Induction of stabilization of CRAF phosphorylation in human HCT-116 cells xenografted NCR nude mouse assessed as decrease in pERK level at 10 mg/kg, po bid for 4 days and measured after 2 to 8 hrs; format: functional, organism-based; settings: time 4.0 day
Mus musculus [24] = test: Induction of stabilization of CRAF phosphorylation in human HCT-116 cells xenografted NCR nude mouse assessed as decrease in pMEK level at 10 mg/kg, po bid for 4 days and measured after 2 to 8 hrs; format: functional, organism-based; settings: time 4.0 day
[25] = Volume of distribution at steady state in mouse at 1 mg/kg, iv; format: ADME, organism-based; settings: in vivo, read-out: Vdss
HCT-116 [26] = test: Antitumour activity against human HCT-116 cells harboring KRAS mutant xenografted in NCR nude mouse assessed as tumor growth inhibition at 10 mg/kg, po bid for 21 days; format: functional, organism-based; settings: time 21.0 day
Mus musculus [27] = test: Induction of stabilization of CRAF phosphorylation in human HCT-116 cells xenografted NCR nude mouse assessed as decrease in pRSK level at 10 mg/kg, po bid for 4 days in presence of Cobimetinib and measured after 8 hrs; format: functional, organism-based; settings: time 4.0 day
HCT-116 [28] = test: Antitumour activity against human HCT-116 cells harboring KRAS mutant xenografted in NCR nude mouse assessed as tumor growth inhibition at 10 mg/kg, po bid for 21 days in presence of 5 mg/kg Cobimetinib; format: functional; settings: HCT-116, po, 504 h, time 21 day, read-out: TGI
[29] = Oral bioavailability in mouse using amorphous spray-dried dispersion at 25 mg/kg; format: ADME, organism-based; settings: in vivo
[30] = Oral bioavailability in mouse using methylcellulose-tween at 5 mg/kg; format: ADME, organism-based; settings: in vivo

Serine/threonine-protein kinase B-raf, sequence (P15056 whole entry): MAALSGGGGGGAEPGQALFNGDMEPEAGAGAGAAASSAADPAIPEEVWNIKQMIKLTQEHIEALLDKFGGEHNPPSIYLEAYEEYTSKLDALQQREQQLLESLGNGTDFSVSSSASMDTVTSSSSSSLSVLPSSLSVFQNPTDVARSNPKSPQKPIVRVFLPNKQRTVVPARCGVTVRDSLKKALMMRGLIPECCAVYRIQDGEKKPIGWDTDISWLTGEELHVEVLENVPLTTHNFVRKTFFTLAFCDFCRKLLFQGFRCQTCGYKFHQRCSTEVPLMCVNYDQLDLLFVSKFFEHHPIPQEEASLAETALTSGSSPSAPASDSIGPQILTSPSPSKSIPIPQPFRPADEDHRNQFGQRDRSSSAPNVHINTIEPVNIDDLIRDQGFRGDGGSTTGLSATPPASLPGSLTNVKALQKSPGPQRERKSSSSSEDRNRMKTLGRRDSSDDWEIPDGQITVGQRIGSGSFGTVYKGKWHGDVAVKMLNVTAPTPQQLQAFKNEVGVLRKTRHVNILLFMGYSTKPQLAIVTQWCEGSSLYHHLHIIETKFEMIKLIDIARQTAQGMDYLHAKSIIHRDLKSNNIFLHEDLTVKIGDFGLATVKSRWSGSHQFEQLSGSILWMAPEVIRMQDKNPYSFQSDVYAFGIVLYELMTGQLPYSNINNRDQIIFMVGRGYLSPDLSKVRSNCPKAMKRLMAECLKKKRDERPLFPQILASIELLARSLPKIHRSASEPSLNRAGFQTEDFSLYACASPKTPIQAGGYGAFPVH
RAF proto-oncogene serine/threonine-protein kinase, sequence (P04049 whole entry Y340D/Y341D): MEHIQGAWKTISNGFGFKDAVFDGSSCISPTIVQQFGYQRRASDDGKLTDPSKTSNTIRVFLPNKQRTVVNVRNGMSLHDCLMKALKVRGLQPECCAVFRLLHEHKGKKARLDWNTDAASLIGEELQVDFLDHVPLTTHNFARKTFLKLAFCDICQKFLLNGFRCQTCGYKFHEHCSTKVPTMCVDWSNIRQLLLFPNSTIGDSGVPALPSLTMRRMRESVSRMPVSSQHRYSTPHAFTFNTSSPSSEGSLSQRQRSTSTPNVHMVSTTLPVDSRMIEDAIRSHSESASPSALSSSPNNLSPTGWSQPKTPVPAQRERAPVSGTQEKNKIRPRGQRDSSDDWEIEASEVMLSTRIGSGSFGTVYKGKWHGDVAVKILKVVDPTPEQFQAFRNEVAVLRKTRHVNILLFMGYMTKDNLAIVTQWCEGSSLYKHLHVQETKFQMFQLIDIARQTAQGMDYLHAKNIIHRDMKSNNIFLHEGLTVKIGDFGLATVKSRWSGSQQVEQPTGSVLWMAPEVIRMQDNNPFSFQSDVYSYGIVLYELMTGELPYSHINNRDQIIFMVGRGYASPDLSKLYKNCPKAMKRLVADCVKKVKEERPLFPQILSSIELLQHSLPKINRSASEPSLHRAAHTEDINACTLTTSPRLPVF

SMILES: O=C(c1ccc(F)c(F)c1Nc1ccc(I)cc1F)N1CC(O)([C@@H]2CCCCN2)C1
inhibition (Mus musculus [1]): Active | Activity (HCT-116 [2]): Active

SMILES: CNc1cc(-c2cccnc2Nc2cc(NC(=O)NCCC(C)(C)C)c(F)cc2C)ncn1
IC50 (A549 [3]): 208 nM | IC50 (A549 [4]): 2400 nM | IC50 (A-375 [5]): 92.6 nM | Ki [6]: 0.06 nM | Ki [7]: < 0.08 nM

SMILES: Cc1cc(F)c(NC(=O)NCCC(C)(C)C)cc1Nc1ccc2ncn(C)c(=O)c2c1F
Activity [8]: Non-Toxic | bioavailability [9]: 26% | Activity (Mus musculus [10]): Active | Activity (Mus musculus [11]): Active | Activity (A-375 [12]): Active | half-life [13]: 48 min | IC50 (A549 [3]): 169 nM | solubility kinetic [14]: 3 µM (≈ 1.33 µg/mL) | clearance [15]: 27 mL/min/kg | Activity (Mus musculus [16]): Active | Papp A→B [17]: 13 ×10⁻⁶ cm/s | Activity (HCT-116 [18]): Active | Activity [19]: 10% | logD [20]: 4.47 | bioavailability [21]: 60% | Activity (A549 [22]): Dose-Dependent Effect | IC50 (A549 [4]): 2900 nM | IC50 (A-375 [5]): 112 nM | Ki [6]: 0.061 nM | Ki [7]: < 0.08 nM | Activity (Mus musculus [23]): Active | Activity (Mus musculus [24]): Active | Vd [25]: 1.4 L/kg | Activity (HCT-116 [26]): Active | Activity (Mus musculus [27]): Active | inhibition in vivo at 10 mg/kg (HCT-116 [28]): 110%

SMILES: Cc1cc(F)c(NC(=O)NCCC(C)(C)C)cc1NC(=O)c1cccc2c(N)ncnc12
IC50 (A549 [3]): 96.8 nM | IC50 (A549 [4]): 528 nM | IC50 (A-375 [5]): 8 nM | Ki [6]: < 0.05 nM | Ki [7]: < 0.08 nM

SMILES: COc1n[nH]c2ncc(NC(=O)c3cc(NC(=O)NCCC(C)(C)C)c(F)cc3C)cc12
IC50 (A549 [3]): 158 nM | IC50 (A549 [4]): 986 nM | IC50 (A-375 [5]): 47.4 nM | Ki [6]: < 0.05 nM

Results, then the compound that gave them:

bioavailability [29]: 2% | half-life [13]: 30 min | IC50 (A549 [3]): 253 nM | solubility kinetic [14]: < 1 µM | clearance [15]: 50 mL/min/kg | Papp A→B [17]: 3.6 ×10⁻⁶ cm/s | logD [20]: 4.47 | bioavailability [30]: 0% | IC50 (A549 [4]): 2700 nM | IC50 (A-375 [5]): 405 nM | Ki [6]: < 0.05 nM | Ki [7]: < 0.08 nM | Vd [25]: 0.94 L/kg
SMILES: Cc1cc(F)c(NC(=O)NCCC(C)(C)C)cc1Nc1ccc2ncn(C)c(=O)c2c1

IC50 (A549 [3]): 104 nM | IC50 (A549 [4]): 1400 nM | IC50 (A-375 [5]): 85.3 nM | Ki [6]: < 0.05 nM | Ki [7]: < 0.08 nM
SMILES: Cc1cc(F)c(NC(=O)NCCC(C)(C)C)cc1NC(=O)N(C)c1cc(N)ncn1
